From article PMC12620000, “Exploring the feasibility of protein phosphatase 1–docking motif-mimetic cell-penetrating peptides for modulating prostate carcinogenesis” (JNCI Cancer Spectrum, 2025)
Like-named read-outs stand apart in the source and are kept apart here. Where no end group is shown, it is not given here.

How the values were obtained:
LNCaP cells = format: cell-based; conditions: 24 h
Description: (§1) One mM peptide stocks were prepared as for fluorescent versions. Cells were grown to 60%-70% confluence in 96-well plates and treated with 1-20 μM peptides in RPMI-1640 (phenol red-free). After 24 or 48 hours at 37 °C, 5% CO2, PrestoBlue (1/10 dilution) was added for 30 minutes. Fluorescence (λAbs 560 nm/λEm 600 nm) was measured using an Infinite 200 PRO reader (Tecan). Each condition had 3-5 replicates, repeated in 3 independent experiments.
(§2) Figure 3. Synergistic reduction of prostate cancer cell viability by combined AR-BS peptides. […] B) Cells were treated with combinations of AR-BS peptides (5 or 10 μM of each peptide) for 24 hours to assess potential synergistic effects. Cell viability was evaluated using the PrestoBlue Cell Viability Reagent according to the manufacturer’s instructions. Percentage cell viability was calculated as the ratio between treatment and control conditions (cells without treatment). Results are expressed as mean (SD) percentage from 3 independent experiments with 5 replicates per condition. Statistical comparisons were performed using the Mann–Whitney U test. *P < .05. Abbreviations: AR-BS = androgen receptor–binding site; mitP = mitoparan.
(§3) Percentage cell viability was calculated from the ratio between treatment condition and control condition (cells with no treatment). Results are expressed as mean ± SD from three independent experiments with five replicates per condition.

PC3 cells = format: cell-based; conditions: 24 h
Description: as §1, §2, §3

Row | Substance | Cell viability, Mean (LNCaP cells; 5 μM) [%] | Cell viability, Mean (LNCaP cells; 10 μM) [%] | Cell viability, Mean (LNCaP cells; 20 μM) [%] | Cell viability, Mean (PC3 cells; 5 μM) [%] | Cell viability, Mean (PC3 cells; 10 μM) [%] | Cell viability, Mean (PC3 cells; 20 μM) [%]
1 | GSCKVFFKRAAKGKQK-NH2 [AR-BS1] | 97 | 96 | 94 | 89 | 89 | 81
2 | KVKPIYFHTGRKKRRQRRRPPQ-NH2 [AR-BS3] | 91 | 94 | 99 | 79 | 88 | 84
3 | RQLVHVVKWAKKL-NH2 [AR-BS2] | 95 | 96 | 83 | 93 | 87 | 81
